Reference: US20120088896A1, “DRUG FOR INHIBITING LECTIN-LIKE OXIDIZED LDL RECEPTOR AND DRUG FOR PREVENTING ARTERIOSCLEROSIS” (NATIONAL CEREBRAL AND CARDIOVASCULAR CENTER, priority 2009, published 2012)

What was measured:
[1] = biological target: T1, TetOn hLOX-1 CHO cells (human LOX-1) (Homo sapiens, UniProt P78380); assay: Binding of DiI-labeled oxidized LDL to LOX-1 expressing cells under low temperature conditions; type: cell-based; settings: trimeric procyanidins of different structure at 0.1 μg/ml, on ice; Example 5
T1 construct: expressed in transfected cells
Description: It is said that caveola or clathrin is also involved in the incorporation of oxidized LDL into the cells, in addition to that mediated by LOX-1.
First, 100 μl of the suspension of LOX-1 expressing cells adjusted with the above culture medium so as to achieve a density of 1×10^5 cells/ml was dispensed into each well of a 96-well plate (manufactured by Costar, Product Number: 3603). In addition, in order to induce the expression of LOX-1, doxycycline (manufactured by Calbiochem) was added so that the final concentration thereof was 1 μg/ml. As a control, a well where no doxycycline was added so that no expression was induced was also prepared. This 96-well plate was incubated at 37° C. for 24 hours in a CO2 incubator, and each well was then washed with the aforementioned FBS(−) medium cooled to 4° C. […]
This 96-well plate was observed using the In Cell Analyzer 1000 system (manufactured by GE healthcare) to measure the DiI fluorescence intensity and the number of nuclei per each well, and the fluorescence intensity per single cell was determined in the same manner as in Example 2.
Further, the oxidized LDL binding rate (%) was calculated by the following formula (3). […]
Subsequently, the effects of these four types of trimeric procyanidins on the inhibition of the bonding between LOX-1 and oxidized LDL were evaluated. […]

ex-hLOX-1 protein = biological target: T2, ex-hLOX-1 protein (Homo sapiens, UniProt P78380); assay: BIACORE measurement of direct bonding of procyanidins and LOX-1; settings: monomers to heptamers at 20 μM; peak 3 trimers at 1.25-20 μM; 120 s binding, 120 s dissociation; read-out: Dissociation Constant
T2 construct: IgK secretion signal (printed 'IgK selection signal') (N, cleaved yes); His tag (from vector pSecTag/FRT/V5His); made in house; host or cells: 293F cells (FreeStyle 293 Expression System)
Description: The direct bonding of procyanidins and LOX-1 was evaluated using the BIACORE system.
LOX-1 was fixed on a sensor chip, and the BIACORE measurement was carried out using the procyanidins as the liquid phase. The BIACORE measurements and analyses were conducted using the BIACORE 2000 (GE Healthcare). In addition, the sensor chip CM5 was used as a sensor chip, and the ex-hLOX-1 protein was immobilized on the sensor chip by employing the amine coupling method. A HEPES solution (consisted of 10 mM HEPES, 150 mM NaCl and 2 mM CaCl2) was degassed and used as the running buffer.
Among the procyanidins made to flow through the chip, monomeric to heptameric procyanidins were each adjusted to 20 μM using the running buffer and used for the measurement.
In addition, when the procyanidins were reacted in the sensor chip, the flow rate was set to 20 μl/min, and the dissociation constant was measured with 120 seconds of binding and 120 seconds of dissociation.

SMILES	oxidized LDL binding rate (LOX-1 inhibiting activity) [1]	Kd (ex-hLOX-1 protein)
Oc1cc(O)c2c(c1)O[C@H](c1ccc(O)c(O)c1)[C@H](O)[C@H]2c1c(O)cc2c(c1O)[C@H](c1c(O)cc(O)c3c1O[C@H](c1ccc(O)c(O)c1)[C@@H](O)C3)[C@@H](O)[C@@H](c1ccc(O)c(O)c1)O2 (single isomer, unassigned; peak 2) [peak 2, epi (4β → 6) epi (4β → 8) cat]	exhibited stronger LOX-1 inhibiting activities than the trimeric procyanidins represented by peaks 1 and 4	
Oc1cc(O)c2c(c1)O[C@H](c1ccc(O)c(O)c1)[C@H](O)[C@H]2c1c(O)cc2c(c1O)C(c1c(O)cc(O)c3c1O[C@H](c1ccc(O)c(O)c1)[C@H](O)C3)[C@@H](O)[C@@H](c1ccc(O)c(O)c1)O2 (single isomer, unassigned; peak 3) [peak 3, epi (4β → 6) epi (4β → 8) epi]	exhibited stronger LOX-1 inhibiting activities than the trimeric procyanidins represented by peaks 1 and 4	3.8 µM
